Test results published in publication PMC5071874, “Universal stress protein Rv2624c alters abundance of arginine and enhances intracellular survival by ATP binding in mycobacteria” (Scientific Reports, 2016).

Target: Rv2624c (Mycobacterium tuberculosis, UniProt P9WFD5)
Sequence (P9WFD5 whole entry): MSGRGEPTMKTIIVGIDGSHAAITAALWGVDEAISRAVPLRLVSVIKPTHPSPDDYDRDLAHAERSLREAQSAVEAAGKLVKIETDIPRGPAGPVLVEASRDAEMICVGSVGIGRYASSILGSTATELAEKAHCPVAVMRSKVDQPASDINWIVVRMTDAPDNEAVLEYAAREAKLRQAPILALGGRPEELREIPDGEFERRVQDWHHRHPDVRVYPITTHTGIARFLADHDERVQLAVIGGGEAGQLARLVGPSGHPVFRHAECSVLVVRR

SMILES | HPLC of nucleotides extracted by boiling purified protein
Nc1ncnc2c1ncn2[C@@H]1O[C@H](COP(=O)(O)OP(=O)(O)O)[C@@H](O)[C@H]1O [ADP] | purified Rv2624c proteins from E. coli bound tightly to ATP and ADP after extensive purification steps
Nc1ncnc2c1ncn2[C@@H]1O[C@H](COP(=O)(O)OP(=O)(O)OP(=O)(O)O)[C@@H](O)[C@H]1O [ATP] | purified Rv2624c proteins from E. coli bound tightly to ATP and ADP after extensive purification steps
